Measurements reported in patent US20220016118A1, “COMBINATION OF A MCL-1 INHIBITOR AND MIDOSTAURIN, USES AND PHARMACEUTICAL COMPOSITIONS THEREOF” (LES LABORATOIRES SERVIER, priority 2018, published 2022).

Columns and labels:
Molm13 = experiment: Caspase-Glo 3/7 caspase3.7 activity, dose matrix, Molm13; assay type: cell-based; conditions: single agent, Molm13 (FLT3-ITD), 6 hours treatment, highest dose 3 uM
Protocol: (§1) Both compounds were dissolved in 100% DMSO (Sigma, Catalog number D2650) at concentrations of 10 mM and stored at −20° C. until use.
(§2) The cell line Molm13 used in this study was purchased from Leibniz-Institut DSMZ (ACC 554) and MV-4-11 from American Type Cell Collection (ATCC® CRL-9591). The cell lines were cultured at 37° C. in a 5% CO2 incubator, Molm13 in RPMI (Lonza, 12-702F) and MV-4-11 in IMDM (Hyclone, SH30228.01) media complemented with 10% fetal bovine serum (Seradigm, 1500-500). The cells were passaged twice a week and the medium was changed every 2 to 3 days.
(§3) Caspase3.7 activity was measured by the Caspase-Glo® 3/7 kit from Promega (G8092), 9000 cells/well were dispensed into clear-bottom 384-well black plates (Greiner, #781091) in triplicates with 30 μl/well growth media. […] Then 30 ul/well of the Caspase-Glo® 3/7 reagents was added to each well at the end and luminescence was recorded on an Envision plate reader (Perkin Elmer). Measured Luminescence is proportional to the amount of caspase activity present. […]
(§4) The Compound A and Compound B “dose matrix”, consisted of the following: both compounds were subjected to a 11 dose 1:3 serial dilution with the highest dose of 3 uM and down to no-compound control. […] The percent caspase3.7 activity was calculated using the following calculation: (I-control/compound treated)×100. […]

MV-4-11 = experiment: Caspase-Glo 3/7 caspase3.7 activity, dose matrix, MV-4-11; assay type: cell-based; conditions: single agent, MV-4-11 (FLT3-ITD), 6 hours treatment, highest dose 3 uM
Protocol: as §1, §2, §3, §4

MV-4-11 cells = experiment: Western blot of FLT3-mediated signaling and Bcl-2 family proteins; assay type: cell-based; conditions: 6 hours
Protocol: B. Western blot analysis of FLT3-mediated signaling pathways and expression of Bcl-2 family proteins in MV-4-11 cells treated for 6 hours with Midostaurin. S63845 alone or in combination. De-phosphorylation of FLT3-ITD lead to inactivation of STAT5 and MAPK and was accompanied by significant downregulation of MAPK-mediated phosphorylation of Mcl-1 at Thr163, site required for Mcl-1 stability. Consequently, Midostaurin reduced level of Mcl-1.
Cells (3×10^6/well) were seeded in 6-well plates in 5 mL of complete RPMI medium and exposed to Midostaurin and S63845 given alone or in combination. Control cells received DMSO. Cells were incubated for 6 hours and then collected, washed twice in PBS and lysed in RIPA buffer (ThermoFisher Scientific) supplemented with 1× Protease and Phosphatase Inhibitor cocktail (ThermoFisher Scientific). Lysates were kept on ice for 20 minutes with vortexing every 5 minutes, then briefly sonicated and centrifuged at 13500 rpm for 15 minutes. Supernatant was collected and protein content was measured using […]. Cell lysates (30-50 μg protein per well) were resolved by electrophoresis on 4%-20% gradient precast sodium dodecyl sulfate-polyacrylamide gels (Bio-Rad, Hercules, Calif.) and transferred to PVDF membrane (Bio-Rad). […]

MV4-11 FLT3-ITD = experiment: Dynamic BH3 profiling (cytochrome C release); assay type: cell-based; conditions: 4 hours after treatment with Midostaurin (100 nM)
Protocol: Cells were subjected to BH3 profiling assay 4 hours after treatment with Midostaurin (100 nM). Increase in cytochrome C release is a quantitative measure of mitochondrial apoptosis initiation.
BH3 profiling was performed in black 384-well plates according to A. Letai method (https://letailab.dana-farber.org/bh3-profiling.html). Briefly, cells ([…]) were seeded in 6-well plates in 5 mL of complete RPMI medium and exposed to Midostaurin and S63845 given alone or in combination. Control cells received DMSO. Cells were incubated for 6 hours, collected, washed twice in PBS and resuspended in MEB buffer (150 mM mannitol, 10 mM HEPES-KOH pH 7.5, 150 mM KCl, 1 mM EGTA, 1 mM EDTA, 0.1% BSA, 5 mM succinate) to a final density 1×10^6/mL. Cells (15 μL) were added to 384-well plate containing containing peptides % BH3 mimetics and 15 μL of 0.002% digitonin in MEB buffer. Cells were incubated for 1 hour in 25° C. and subsequently fixed in 10 μL of 4% formaldehyde in PBS for 10 minutes. To terminate the fixation, 10 μL of N2 buffer (1.7M Tris, 1.25M Glycine pH 9.1) was added and cells were left at room temperature for 5 minutes. […] Cytochrome C release was measured by flow cytometry.

solid tumors = conditions: single agent, Phase I trial; cited from earlier work
AML with FLT3 mutation = conditions: added to cytarabine and daunorubicin induction and cytarabine consolidation; cited from earlier work

| SMILES | induction of caspase activity, maximum increase (Molm13) [%] | induction of caspase activity, maximum increase (MV-4-11) [%] | level of pro-apoptotic Bim (MV-4-11 cells) | level of Mcl-1 (MV-4-11 cells; MV-4-11 cells) | mitochondrial priming to Mcl-1 inhibitor S63845 and Bim peptide (MV4-11 FLT3-ITD) | efficacy (solid tumors) | toxicity (solid tumors) | overall survival (AML with FLT3 mutation) |
| --- | --- | --- | --- | --- | --- | --- | --- | --- |
| CO[C@]1(O)[C@H](N(C)C(=O)c2ccccc2)C[C@H]2O[C@]1(C)n1c3ccccc3c3c4c(c5c6ccccc6n2c5c31)C(=O)NC4 [Compound A, 4′-N-benzoylstaurosporine] | 33 | 24 | increased | reduced | increased | limited efficacy | low toxicity | increased overall survival |
| COc1ccccc1-c1nccc(COc2ccccc2C[C@@H](Oc2ncnc3sc(-c4ccc(F)cc4)c(-c4ccc(OCCN5CCN(C)CC5)c(Cl)c4C)c23)C(=O)O)n1 [Compound B, (2R)-2-{[(5Sa)-5-{3-chloro-2-methyl-4-[2-(4-methylpiperazin-1-yl)ethoxy]phenyl}-6-(4-fluorophenyl)thieno[2,3-d]pyrimidin-4-yl]oxy}-3-(2-{[2-(2-methoxyphenyl)pyrimidin-4-yl]methoxy}phenyl)propanoic acid] | 87 | 89 |  |  |  |  |  |  |
